Source: patent publication US20230346735A1, “Nutritional Composition Comprising Carnitine and Method for Treating or Preventing an Infection in a Mammal” (priority 2020, published 2023)
Marks after values point to notes of the source that are not given here.

Columns and labels:
[1] = tested on: malondialdehyde; assay: Antioxidant capacity: malondialdehyde in exercised rats; assay type: in vivo, rat; details: 6 weeks
Protocol: (§1) Fifty-six (56) Male Wistar rats that were 8-week old were obtained. The rats were reared at the temperature of 22 ± 2° C., the humidity of 55 ± 5%, and with a 12-hrs light-12-hrs dark cycle. All procedures involving rats were conducted in strict compliance with the relevant laws, the Animal Welfare Act, Public Health Services Policy, and guidelines established by the Institutional Animal Care and Use Committee of the Institute of the contracted University which completed the study.
(§2) After a week of the adaptation period, the rats were divided into eight equal groups containing seven rats each. The initial body weights of the rats were similar in all the groups (214.53 grams ± 4.67; P > 0.05).
(§3) Groups 1 and 2 were not subjected to an exercise routine. Groups 3-8 were subjected to an exercise regimen consisting of a week training period with an incremental exercise capacity described below. After the week training period the exercise regimen followed was each rat in Groups 3-8 were subjected to 6 weeks of running at 25 m/min during 45 min […]. […] These correspond to 0, 250, 500, 1000, 2000 and 4000 mg per day for humans, respectively.
(§4) The exercised rats were subjected to treadmill exercise on a motorized rodent treadmill (Commat Limited, Ankara, Turkey). The treadmill contained a stimulus grid at the back end of the treadmill giving an electric shock when the animal placed its paw on the grid. […] To eliminate the diurnal variations, all exercise tests were applied during the same time of the day. The week of training period was provided as pre-training practice for the animals to get familiar with the treadmill equipment and handling. In doing so, the rats in the exercise training groups were accustomed by treadmill exercise over 5 days such that: (i) 1st day, 10 m/min for 10 min, (ii) 2nd day, 20 m/min for 10 min, (iii) 3rd day, 25 m/min for 10 min, (iv) 4th day, 25 m/min for 20 min and (v) 5th day, 25 m/min for 30 min. After the training period, the rats in treadmill exercise groups ran on the treadmill 25 m/min for 45 min/ per day and five days per week for 6 weeks according to the protocol described by Sahin et al. Capsaicinoids Improve the Consequences of Physical Activity. Toxicol Rep. 2018;5:598-607, which is hereby incorporated by reference.
(§5) The exercise regimen was used to induce an inflammation and oxidative stress conditions. […] The results of malondialdehyde, superoxide dismutase, catalase, and glutathione peroxidase for each rat group are shown in TABLE 2.

[2] = tested on: glutathione peroxidase; assay: Antioxidant capacity: glutathione peroxidase in exercised rats; assay type: in vivo, rat; details: 6 weeks
Protocol: as §1, §2, §3, §4, §5

[3] = tested on: ACE-1; assay: Rat plasma serum ELISA, ACE-1; assay type: in vivo; details: exercised rats, FIG. 5A
[4] = tested on: ACE-2; assay: Rat plasma serum ELISA, ACE-2; assay type: in vivo; details: exercised rats, FIG. 5B
[5] = tested on: TNF-alpha; assay: Human study, serum ELISA, TNF-alpha; assay type: in vivo
Protocol: A human study was run with a total of 80 healthy male and female subjects ranging from 21 to 65 years of age, who were active (i.e. 30 minutes per day of moderate activity, 3 days per week) are randomized into two groups. […] Seventy-three subjects completed the trial and biomarker data were analyzed from the sera of the 73 completers. Sera were collected for analysis of C-Reactive Protein (CRP), ACE 1, ACE 2, TMPRSS 2, the Tumor Necrosis Factor alpha (TNF-alpha), and Furin at baseline in the beginning of the trial, at week 5 and 48 hr after an exercise challenge as described (Clinicaltrials.gov NCT04420377). The exercise challenge serves as surrogate to the inflammation stimulus.
To obtain human sera, venous blood was extracted by venipuncture of the antecubital vein using a 21-gauge syringe and collected into a 10 mL EDTA vacutainer tube (BD Vacutainer®, Becton, Dickinson and Company, Franklin Lakes, NJ) by a certified phlebotomist. […] Human ACE-1, ACE-2, TMPRSS2, Furin, CRP and TNF-alpha protein levels were assessed using commercially available ELISA kits, according the manufacturer recommendations, ACE-1 (R&D systems Inc., Minneapolis, MN, USA), ACE-2 (RayBiotech inc., Peachtree Corners, GA), TMPRSS2 (Novus Biologicals, Littleton, CO), CRP (R&D Systems Inc., Minneapolis, MN), TNF-alpha (Novus Biologicals, Littleton, CO), and Furin (Sigma Aldrich, St. Louis, MO). […]

[6] = tested on: ACE-2; assay: ACE-2 surface protein in Calu-3 cells, flow cytometry; assay type: cell-based, human; details: Calu-3, 100 uM, 24-hr pre-treatment
Protocol: ACE-2 surface expression protein in Calu-3 cells was evaluated using FACS flow cytometry sorting. […] Cells were detached with PBS/EDTA at room temperature. FBS-containing growth media was added to cells to inactivate TE. Cells were spun for 5 min at […]. Supernatant was removed and cells were washed twice in flow buffer (PBS+0.2% FBS). Between 100,000-200,000 cells were stained for ACE-2 and BST2 (absent in Calu-3and used as a control) for 30 min on ice using goat anti-ACE-2 (R&D Systems; AF933) and PE-conjugated BST2 (BioLegend; Cat # 348406). Cells were washed once and stained with Alexa Fluor 647 donkey anti-goat for 30 min on ice. Cells were washed once, resuspended in PBS/EDTA and samples were acquired on a FACS LSR Fortessa cytometer (BD Bioscience). Data were analyzed using Flowjo (Version 10.1).
The testing was repeated with D-Carnitine as well. Cells were either stained for ACE2 using either anti-ACE2 Ab, anti-BST2 Ab or the combination or both followed by secondary Ab isotype. […] The table represents the fluorescence counts.

[7] = tested on: SARS-CoV-2; assay: microbe, parasite or virus in culture; assay type: cell-based
[8] = Car200: 200 mg/kg oral gavage, no exercise
[9] = Ex+Car25: exercise, 25 mg/kg oral gavage
[10] = Ex+Car50: exercise, 50 mg/kg oral gavage
[11] = Ex+Car100: exercise, 100 mg/kg oral gavage
[12] = Ex+Car200: exercise, 200 mg/kg oral gavage
[13] = Ex+Car400: exercise, 400 mg/kg oral gavage

C[N+](C)(C)C[C@H](O)CC(=O)[O-] [L-carnitine]
MDA [1, 8]: 0.693±0.021^b µmol/L | MDA [1, 9]: 0.599±0.021^c µmol/L | MDA [1, 10]: 0.549±0.014^cd µmol/L | MDA [1, 11]: 0.553±0.018^cd µmol/L | MDA [1, 12]: 0.489±0.019^de µmol/L | MDA [1, 13]: 0.419±0.009^e µmol/L | GSHPx [2, 8]: 48.74±1.11^d U/mg protein | GSHPx [2, 9]: 49.75±1.08^d U/mg protein | GSHPx [2, 10]: 55.91±0.85^c U/mg protein | GSHPx [2, 11]: 59.57±0.68^bc U/mg protein | GSHPx [2, 12]: 62.58+1.03^b U/mg protein | GSHPx [2, 13]: 69.06±1.53^a U/mg protein | serum ACE-1 [3]: near normal levels | serum ACE-2 [4]: reduction | TNF-alpha levels ([5]; human serum, any time point, b137): No change occurred | TNF-α ([5]; human, group A, Wk5 compared to BL, p<0.01): lower | decrease in the ACE-2 protein at the cell surface [6]: about 75% | virus growth (plaque assay) [7]: successful at inhibiting virus growth | IC50 ([7]; Severe acute respiratory syndrome coronavirus 2, Calu-3, read-out: IC50, inhibition of Calu-3 infection): 139 µM
